Data taken from patent publication US7163689B2, “Intravenous valproate for acute treatment of migraine headache” (priority 1999, dated 2007).
Values joined by “and” are separate entries in the source; they are usually repeats but may differ in a detail not shown here. Equal values may be shown once. “Also recorded” adds a separate entry of the source.

Columns and labels:
[1] = tested on: patients with prolonged moderate to severe migraine; test: Further expanded study (N=40): Depacon vs DHE preceded by metoclopramide, prolonged moderate to severe migraine (Example 3); format: in vivo, human; conditions: for Headache Severity (group value, four grade rating) / Number of Patients Who Reported Nausea / Number of Patients Who Reported Phonophobia / Number of Patients Who Reported Photophobia / Responder Rate / Symptom Free patients (no headache or associated symptomatology), % / Symptom Free patients (no headache or associated symptomatology), number: N = 20 per group
Description: This Example describes a further expanded study and analysis of the effectiveness of intravenous VPA for the treatment of acute migraine headache of significant duration. Patient data from the study described in Examples 1 and 2 have been incorporated and further analyzed in addition to new patient data. • Design and Methods. Participants (N=40) were from age 14 to 74 and were established patients of the Western New England Headache Clinic. Patients called to report the pressure of prolonged moderate to severe migraine. They had no evidence of conditions other than migraine to cause headache and were medically stable. […] Patients received a neurological and general physical examination and filled out a four grade baseline headache rating from developed by Western New England Headache Clinic (see Table 2). The patients then received either 500 mg Depacon™ over 15–30 minutes administered in 100 ccs D5W, or 1 mg DHE intramuscularly preceded by 10 mg metoclopramide intramuscularly. Headache severity and associated symptomatology were rated 1, 2, and 4 hours. Results. A total of 40 patients were randomized, 20 in the Depacon™ group and 20 in the DHE group. Table VII summarizes the number of patients in each group by severity of headache (moderate or severe), demographic data and medication assignment.

[2] = tested on: patients with moderate to severe migraine headaches of duration of 24 to 96 hrs; test: Pilot study: IV valproate vs IM DHE with metoclopramide for abortive treatment of acute migraine headache (Example 1); format: in vivo, human; conditions: individual patient, grade 0-3, 24-h
[3] = tested on: patients with moderate to severe headaches of 24–72 hours duration; test: Expanded study: IV VPA vs DHE with metoclopramide IM, acute migraine headache (Example 2); format: in vivo, human; conditions: 24-h
[4] = tested on: acute migraine headache; conditions: at 2 hours after administration; cited from earlier work

## CCCC(CCC)C(=O)[O-].[Na+] [Depacon, valproate sodium]
[1]; 20 patients receiving 500 mg Depacon given during 15 to 30 minutes infusion, sodium
  adverse events: remarkably free of adverse event; also recorded: no adverse events
[1]; 1 hour
  % of Patients Who Reported Nausea: 53%
  % of Patients Who Reported Phonophobia: 74%
  % of Patients Who Reported Photophobia: 70%
  Headache Severity (group value, four grade rating): 1.8
  Number of Patients Who Reported Nausea: 8
  Number of Patients Who Reported Phonophobia: 14
  Number of Patients Who Reported Photophobia: 14
  Responder Rate: 50%
[1]; 2 hours
  % of Patients Who Reported Nausea: 53%
  % of Patients Who Reported Phonophobia: 58%
  % of Patients Who Reported Photophobia: 50%
  Headache Severity (group value, four grade rating): 1.5
  Number of Patients Who Reported Nausea: 8
  Number of Patients Who Reported Phonophobia: 11
  Number of Patients Who Reported Photophobia: 10
  Responder Rate: 60%
[1]; 4 hours
  % of Patients Who Reported Nausea: 47%
  % of Patients Who Reported Phonophobia: 53%
  % of Patients Who Reported Photophobia: 45%
  Headache Severity (group value, four grade rating): 1.4
  Number of Patients Who Reported Nausea: 7
  Number of Patients Who Reported Phonophobia: 10
  Number of Patients Who Reported Photophobia: 9
  Responder Rate: 60%
[1]; Baseline
  % of Patients Who Reported Nausea: 75%
  % of Patients Who Reported Phonophobia: 95%
  % of Patients Who Reported Photophobia: 100%
  Headache Severity (group value, four grade rating): 2.7
  Number of Patients Who Reported Nausea: 15
  Number of Patients Who Reported Phonophobia: 19
  Number of Patients Who Reported Photophobia: 20
[1]; at 1 hour
  Symptom Free patients (no headache or associated symptomatology), %: 10%
  Symptom Free patients (no headache or associated symptomatology), number: 2
[1]; at 2 hours
  Symptom Free patients (no headache or associated symptomatology), %: 15%
  Symptom Free patients (no headache or associated symptomatology), number: 3
[1]; at 4 hours
  Symptom Free patients (no headache or associated symptomatology), %: 25%
  Symptom Free patients (no headache or associated symptomatology), number: 5
[1]; baseline, 1, 2 and 4 hours, P>0.05
  response of associated symptomatology compared with the DHE group: responded somewhat better, although not statistically significantly
[2]; sodium
  Headache Severity: 1 and 2 (2×) and 3 and 0
[3]
  % experiencing Photophobia: 60%

## CN1C[C@H](C(=O)N[C@]2(C)O[C@@]3(O)[C@@H]4CCCN4C(=O)[C@H](Cc4ccccc4)N3C2=O)C[C@@H]2c3cccc4[nH]cc(c34)C[C@H]21 [DHE, dihydroergotamine]
[1]; 1 hour
  % of Patients Who Reported Nausea: 42%
  % of Patients Who Reported Phonophobia: 67%
  % of Patients Who Reported Photophobia: 75%
  Headache Severity (group value, four grade rating): 1.5
  Number of Patients Who Reported Nausea: 5
  Number of Patients Who Reported Phonophobia: 12
  Number of Patients Who Reported Photophobia: 15
  Responder Rate: 45%
[1]; 2 hours
  % of Patients Who Reported Nausea: 50%
  % of Patients Who Reported Phonophobia: 67%
  % of Patients Who Reported Photophobia: 65%
  Headache Severity (group value, four grade rating): 1.4
  Number of Patients Who Reported Nausea: 6
  Number of Patients Who Reported Phonophobia: 12
  Number of Patients Who Reported Photophobia: 13
  Responder Rate: 50%
[1]; 4 hours
  % of Patients Who Reported Nausea: 50%
  % of Patients Who Reported Phonophobia: 61%
  % of Patients Who Reported Photophobia: 55%
  Headache Severity (group value, four grade rating): 1.2
  Number of Patients Who Reported Nausea: 6
  Number of Patients Who Reported Phonophobia: 11
  Number of Patients Who Reported Photophobia: 11
  Responder Rate: 60%
[1]; Baseline
  % of Patients Who Reported Nausea: (60%)
  % of Patients Who Reported Phonophobia: 90%
  % of Patients Who Reported Photophobia: 100%
  Headache Severity (group value, four grade rating): 2.6
  Number of Patients Who Reported Nausea: DHE 12
  Number of Patients Who Reported Phonophobia: 18
  Number of Patients Who Reported Photophobia: 20
[1]; at 1 hour
  Symptom Free patients (no headache or associated symptomatology), %: 15%
  Symptom Free patients (no headache or associated symptomatology), number: 3
[1]; at 2 hours
  Symptom Free patients (no headache or associated symptomatology), %: 25%
  Symptom Free patients (no headache or associated symptomatology), number: 5
[1]; at 4 hours
  Symptom Free patients (no headache or associated symptomatology), %: 30%
  Symptom Free patients (no headache or associated symptomatology), number: 6
[2]
  Headache Severity: 1 (2×) and 0 and 2
[4]
  subjects with good relief of acute migraine headache: 70–80%
[3]
  % experiencing Photophobia: 20%
[3]; individual patient, presence
  Photophobia: 0
